Converted amounts (≈) assume the structure as drawn. Where two headings read alike, the source gives them in different places.
Experiments:
[1] = system: Plasmodium falciparum chloroquine-resistant clone (W2); test: microbe, parasite or virus in culture; format: cell-based; conditions: for IC50: Plasmodium falciparum, W2, P. falciparum W2, anti-HRPII test, read-out: IC50 (dose inhibiting 50% of parasite growth), mean ± SD; for In vitro activity against P. falciparum, in words: P. falciparum W2
[2] = system: Plasmodium berghei NK65; test: Antimalarial suppressive test in mice infected with P. berghei; conditions: for Activity in P. berghei-infected mice, in words: 50 mg/kg by oral route, Table IV experiment
[3] = system: BGM cell line
[4] = P. falciparum W2, anti-HRPII test, mean of 3-5 experiments
[5] = Table IV, 50 mg/kg oral, daily for three days
[6] = Table IV, 50 mg/kg oral, daily for three days, vs untreated controls
[7] = BGM cells, 24 h, MTT, mean of 3-5 experiments
[8] = Table V experiment, chloroquine 15 mg/kg
[9] = Table VI, chloroquine 1.25 mg/kg
[10] = Table VI, chloroquine 2.5 mg/kg
[11] = chloroquine at subcurative doses, dose not given

Work on `O=C1O[C@H]([C@@H](O)CO)C(O)=C1O` [Ascorbic acid] yielded an IC50 ([1]; mean of 3-5 experiments) of no less than 50 µg/mL.

`COc1ccc([C@@H]2CC(=O)c3c(O)cc(O[C@@H]4O[C@H](CO[C@@H]5O[C@@H](C)[C@H](O)[C@@H](O)[C@H]5O)[C@@H](O)[C@H](O)[C@H]4O)cc3O2)cc1O` [Hesperidin] was tested, and the “In vitro activity against P. falciparum, in words” value [1] was “no activity”, the “IC50 (dose inhibiting 50% of parasite growth), mean ± SD” value [1, 4] was no less than 50 µg/mL and the “IC50 (dose inhibiting 50% of parasite growth), mean ± SD” value ([1]; P. falciparum W2, anti-HRPII test, mean of 3-5 experiments, listed as hesperidin) was greater than 25 µg/mL. For the same compound, the “Activity in P. berghei-infected mice, in words” value [2] was “slightly active”, the “Survival (average ± SD)” value [2, 5] was 20 ± 3 and the “mean parasitaemia ± SD, 5th day” value [2, 5] was 5.2 ± 0.8. For the same compound, the “mean parasitaemia ± SD, 7th day” value [2, 5] was 9.1 ± 1.3, the “% Reduction of parasitaemia, 5th day” value [2, 6] was 47% and the “% Reduction of parasitaemia, 7th day” value [2, 6] was 38%. The “MDL50 (minimum lethal dose for 50% of cells), mean ± SD” value [3, 7] was no less than 1000 µg/mL.

`O=c1c(O)c(-c2ccc(O)c(O)c2)oc2cc(O)cc(O)c12` [Quercetin] was tested, and the “Selectivity index (SI) MDL50 / IC50” value [1] was no less than 76.9, the “In vitro activity against P. falciparum, in words” value [1] was “most active flavonoid” and the IC50 ([1]; mean of 3-5 experiments) was 13 ± 8.4 µg/mL (≈ 43 µM). The “Activity in P. berghei-infected mice, in words” value [2] was “best standard flavonoid”, the “Survival (average ± SD)” value [2, 5] was 22 ± 6 and the “mean parasitaemia ± SD, 5th day” value [2, 5] was 4.7 ± 4.0. The “mean parasitaemia ± SD, 7th day” value [2, 5] was 8.3 ± 5.1, the “% Reduction of parasitaemia, 7th day” value [2, 6] was 44% and the “% Reduction of parasitaemia, 5th day” value ([2]; Table IV, 50 mg/kg oral, daily for three days, vs untreated controls, 50 mg/kg) was 52%. For the same compound, the “MDL50 (minimum lethal dose for 50% of cells), mean ± SD” value [3, 7] was no less than 1000 µg/mL.

For `[Se]` [Selenium], the “IC50 (dose inhibiting 50% of parasite growth), mean ± SD” value [1, 4] was no less than 50 µg/mL.

For `CC(=O)N[C@@H](CS)C(=O)O` [N-Acetylcysteine], the “IC50 (dose inhibiting 50% of parasite growth), mean ± SD” value [1, 4] was no less than 50 µg/mL and the “MDL50 (minimum lethal dose for 50% of cells), mean ± SD” value [3] was no less than 1000 µg/mL.

With `N[C@@H](CCC(=O)N[C@@H](CS)C(=O)NCC(=O)O)C(=O)O` [L-Glutathione] the “IC50 (dose inhibiting 50% of parasite growth), mean ± SD” value [1] was no less than 50 µg/mL and the “MDL50 (minimum lethal dose for 50% of cells), mean ± SD” value [3] was no less than 1000 µg/mL.

For `O=c1c(-c2ccc(O)cc2)coc2cc(O)cc(O)c12` [Genistein], the “Selectivity index (SI) MDL50 / IC50” value ([1]; BGM MDL50 / P. falciparum W2 IC50, toxicity considered at SI < 10) was “Inactive”, the “In vitro activity against P. falciparum, in words” value [1] was “no activity” and the “IC50 (dose inhibiting 50% of parasite growth), mean ± SD” value [1, 4] was 28.8 ± 18.0 µg/mL. The IC50 ([1]; mean of 3-5 experiments) was greater than 25 µg/mL and the “MDL50 (minimum lethal dose for 50% of cells), mean ± SD” value [3, 7] was no less than 1000 µg/mL.

For `CC(=O)Oc1c(C)c(C)c2c(c1C)CCC(C)(CCC[C@H](C)CCC[C@H](C)CCCC(C)C)O2` (stereo partly drawn) [Tocopherol acetate], the “Selectivity index (SI) MDL50 / IC50” value [1] was “Inactive”, the IC50 ([1]; mean of 3-5 experiments) was no less than 50 µg/mL and the “MDL50 (minimum lethal dose for 50% of cells), mean ± SD” value [3, 7] was no less than 1000 µg/mL.

For `Cc1cc2nc3c(=O)[nH]c(=O)nc-3n(C[C@H](O)[C@H](O)[C@H](O)CO)c2cc1C` [Riboflavin], the “In vitro activity against P. falciparum, in words” value [1] was “reduced the P. falciparum parasite growth”, the IC50 ([1]; mean of 3-5 experiments) was 8.1 ± 4 µg/mL (≈ 21.5 µM) and the “MDL50 (minimum lethal dose for 50% of cells), mean ± SD” value [3, 7] was no less than 1000 µg/mL.

In the case of `[O]=[Zn]` [Zinc oxide], the “In vitro activity against P. falciparum, in words” value [1] is reported as “reduced the P. falciparum parasite growth”, the “IC50 (dose inhibiting 50% of parasite growth), mean ± SD” value [1, 4] is reported as 2.7 ± 1.4 µg/mL and the “MDL50 (minimum lethal dose for 50% of cells), mean ± SD” value [3, 7] is reported as no less than 1000 µg/mL.

With `CCN(CC)CCCC(C)Nc1ccnc2cc(Cl)ccc12` (stereo not drawn) [Chloroquine] the IC50 ([1]; mean of 3-5 experiments) was 0.175 ± 0.02 µg/mL (≈ 0.547 µM), the “% Reduction of parasitaemia, 5th day” value ([2]; Table IV, chloroquine 20 mg/kg) was 100% and the “% Reduction of parasitaemia, 7th day” value ([2]; Table IV, chloroquine 20 mg/kg) was 100%. For the same compound, the “Survival (average ± SD)” value ([2]; Table IV, chloroquine 20 mg/kg) was 24 ± 5, the “mean parasitaemia ± SD, 5th day” value ([2]; Table IV, chloroquine 20 mg/kg) was 0.0 ± 0.0 and the “mean parasitaemia ± SD, 7th day” value ([2]; Table IV, chloroquine 20 mg/kg) was 0.0 ± 0.0. For the same compound, the “% Reduction of parasitaemia, 7th day” value [2, 8] was 65%, the “Survival (average ± SD)” value [2, 8] was 24 ± 5 and the “mean parasitaemia ± SD, 5th day” value [2, 8] was 0.0 ± 0.0. The “mean parasitaemia ± SD, 7th day” value [2, 8] was 2.9 ± 1.1, the “% Reduction of parasitaemia, 5th day” value ([2]; Table V experiment, chloroquine 15 mg/kg, sub-curative) was 100% and the “% Reduction of parasitaemia, 5th day” value [2, 9] was 93%. For the same compound, the “% Reduction of parasitaemia, 7th day” value [2, 9] was 49%, the “% Reduction of parasitaemia, 9th day” value [2, 9] was 56% and the “Survival (average ± SD)” value [2, 9] was 19 ± 4. The “mean parasitaemia ± SD, 5th day” value [2, 9] was 0.1 ± 0.03%, the “mean parasitaemia ± SD, 7th day” value [2, 9] was 7.6 ± 3.3% and the “mean parasitaemia ± SD, 9th day” value [2, 9] was 5.1 ± 0.1%. The “% Reduction of parasitaemia, 5th day” value [2, 10] was 95%, the “% Reduction of parasitaemia, 7th day” value [2, 10] was 79% and the “% Reduction of parasitaemia, 9th day” value [2, 10] was 29%. The “Survival (average ± SD)” value [2, 10] was 20 ± 9, the “mean parasitaemia ± SD, 5th day” value [2, 10] was 0.01 ± 0.1% and the “mean parasitaemia ± SD, 7th day” value [2, 10] was 3.1 ± 5.3%. The “mean parasitaemia ± SD, 9th day” value [2, 10] was 8.4 ± 4.5%, the “% Reduction of parasitaemia, 5th day” value ([2]; Table VI, chloroquine 5 mg/kg) was 94% and the “% Reduction of parasitaemia, 7th day” value ([2]; Table VI, chloroquine 5 mg/kg) was 69%. For the same compound, the “% Reduction of parasitaemia, 9th day” value ([2]; Table VI, chloroquine 5 mg/kg) was 57%, the “Survival (average ± SD)” value ([2]; Table VI, chloroquine 5 mg/kg) was 24 ± 4 and the “mean parasitaemia ± SD, 5th day” value ([2]; Table VI, chloroquine 5 mg/kg) was 0.0 ± 0.1%. The “mean parasitaemia ± SD, 7th day” value ([2]; Table VI, chloroquine 5 mg/kg) was 4.7 ± 4.0%, the “mean parasitaemia ± SD, 9th day” value ([2]; Table VI, chloroquine 5 mg/kg) was 5.1 ± 3.1% and the “Reduction of parasitaemia, day 5” value [2, 11] was 95%. For the same compound, the “Reduction of parasitaemia, day 7” value [2, 11] was 79%.

In the case of `CC1=C(/C=C/C(C)=C/C=C/C(C)=C/C=C/C=C(C)/C=C/C=C(C)/C=C/C2=C(C)CCCC2(C)C)C(C)(C)CCC1` [Beta carotene], the “Selectivity index (SI) MDL50 / IC50” value [1] is reported as no less than 71.4, the “In vitro activity against P. falciparum, in words” value [1] is reported as “reduced the P. falciparum parasite growth” and the IC50 ([1]; mean of 3-5 experiments) is reported as 14 ± 3.1 µg/mL (≈ 26.1 µM). For the same compound, the “MDL50 (minimum lethal dose for 50% of cells), mean ± SD” value [3, 7] was no less than 1000 µg/mL.

From paper PMC6282106, “Commercial drugs containing flavonoids are active in mice with malaria and in vitro against chloroquine-resistant Plasmodium falciparum” (Memórias do Instituto Oswaldo Cruz, 2018)
